Here are results for 4 molecules from patent US7049303B2, “Inhibition of viruses” (Medical Research Council, priority 2001, dated 2006).

Assay [1] has as its system HIV-1(IIIB). Nature of the assay: Serial passage of HIV-1 infected CEM cell cultures with sub-toxic drug, cytopathic effect (giant cell formation). Type of assay: cell-based. Particulars: for percentage of cytopathic effect (giant cell formation), passage number 1: passage 1; for percentage of cytopathic effect (giant cell formation), passage number 1 / percentage of cytopathic effect (giant cell formation), passage number 2 / percentage of cytopathic effect (giant cell formation), passage number 3 / percentage of cytopathic effect (giant cell formation), passage number 4 / percentage of cytopathic effect (giant cell formation), passage number 5 / percentage of cytopathic effect (giant cell formation), passage number 6 / percentage of cytopathic effect (giant cell formation), passage number 7: subcultivation every 5 days; for percentage of cytopathic effect (giant cell formation), passage number 2: passage 2; for percentage of cytopathic effect (giant cell formation), passage number 3: passage 3; for percentage of cytopathic effect (giant cell formation), passage number 4: passage 4; for percentage of cytopathic effect (giant cell formation), passage number 5: passage 5; for percentage of cytopathic effect (giant cell formation), passage number 6: passage 6; for percentage of cytopathic effect (giant cell formation), passage number 7: passage 7; for antiviral activity (inhibition of HIV replication) in words: HIV-1 infected CEM cells, sub-toxic concentrations, up to 7 passages. As for the experimental part:
HIV-1 infected CEM cells were subcultured every 4–5 days in the presence of sub-toxic concentrations (in the range of 10–20% of their respective IC50 value) of the compounds under test. At each sub-culture, cell-free supernatant (10–20 μl) was transferred to fresh 1 ml cell cultures. At regular intervals the cultures were inspected microscopically to assess the extent of any cytopathic effect (giant cell formation). As an alternative, it is also possible to perform an immunoassay to quantify viral p24 production.
The preliminary results for up to 7 passages are shown below in Table 3.
(In general: Damage to the host cells serves as the signal in cytopathic effect assays.)

The subject of assay [2] is human T-lymphocytes (CEM/O cells). The assay can be described thus: Toxicity: inhibition of proliferation of human T-lymphocytes (CEM/O cells). The settings on record: T-lymphocyte, read-out: IC50 (50% inhibitory concentration), proliferation of CEM/O cells. Type of assay: cell-based. How it is done: Following synthesis, the various compounds were tested in vitro for toxicity, by measuring the IC50 (i.e. the concentration which caused 50% inhibition) in respect of the inhibitory effects of the compounds on the proliferation of human T-lymphocytes (CEM/O cells).

For `OC[C@H]1O[C@@H](n2cnc3c(NO)ncnc32)[C@H](O)[C@@H]1O` [JA28, N^6hydroxyadenosine], in assay [1] (20 μM), the “percentage of cytopathic effect (giant cell formation), passage number 1” value (“percentage … passage number 1” for short) was 100%; the “percentage of cytopathic effect (giant cell formation), passage number 2” value (“percentage … passage number 2” below) was determined as 100%; the “percentage of cytopathic effect (giant cell formation), passage number 3” value (shortened to “percentage … passage number 3”) amounted to 19%; the “percentage of cytopathic effect (giant cell formation), passage number 4” value (“percentage … passage number 4” for short) is 100%. In addition, in assay [1] (20 μM), the “percentage of cytopathic effect (giant cell formation), passage number 5” value (“percentage … passage number 5” below) was determined as 100%; the “percentage of cytopathic effect (giant cell formation), passage number 6” value (shortened to “percentage … passage number 6”) is 100%; the “percentage of cytopathic effect (giant cell formation), passage number 7” value (“percentage … passage number 7” for short) was found to be 100%. In assay [1] (40 μM), the “percentage … passage number 1” value is given as 100%; the “percentage … passage number 2” value is recorded as 100%; the “percentage … passage number 3” value is reported as 50%; the “percentage … passage number 4” value turned out to be 100%. In assay [1] (40 μM), the “percentage … passage number 5” value turned out to be 100%; the “percentage … passage number 6” value was found to be 75%; the “percentage … passage number 7” value is listed as 6%. The IC50 in assay [2] was 156 ± 15 µM.
On to `O=c1nc(NO)ccn1[C@@H]1O[C@H](CO)[C@@H](O)[C@H]1O` [JA29, N^4-hydroxycytidine, reference compound], for which, in assay [1] (0.8 μM), the “percentage … passage number 1” value is listed as 100%; the “percentage … passage number 2” value is reported as 100%; the “percentage … passage number 3” value is on record as 12%; the “percentage … passage number 4” value came to 100%. In assay [1] (0.8 μM), the “percentage … passage number 5” value was determined as 100%; the “percentage … passage number 6” value is on record as 100%; the “percentage … passage number 7” value came to 100%. Moreover, in assay [1] (2 μM), the “percentage … passage number 1” value is listed as 100%; the “percentage … passage number 2” value was 100%; the “percentage … passage number 3” value stood at 25%; the “percentage … passage number 4” value was determined as 100%. For the same molecule, in assay [1] (2 μM), the “percentage … passage number 5” value is given as 100%; the “percentage … passage number 6” value was 100%; the “percentage … passage number 7” value came out at 100%. For the same molecule, the “antiviral activity (inhibition of HIV replication) in words” value in assay [1] is “does not demonstrate any antiviral activity”. In assay [2], the IC50 stood at 16 ± 1 µM.
With `Nc1nc(NO)c2ncn([C@@H]3O[C@H](CO)[C@@H](O)[C@H]3O)c2n1` [JA30, 2-amino-N^6-hydroxyadenosine], in assay [1] (10 μM), the “percentage … passage number 1” value was 100%; the “percentage … passage number 2” value is 100%; the “percentage … passage number 3” value turned out to be 25%; the “percentage … passage number 4” value is 100%. Also, in assay [1] (10 μM), the “percentage … passage number 5” value is on record as 100%; the “percentage … passage number 6” value amounted to 100%; the “percentage … passage number 7” value amounted to 50%. Besides, in assay [2], the IC50 was 78 ± 3 µM.
As for `CONc1nc(N)nc2c1ncn2[C@@H]1O[C@H](CO)[C@@H](O)[C@H]1O` [JA31, 2-amino-6-methoxyamino-9-β-D-ribofuranosylpurine], in assay [1] (20 μM), the “percentage … passage number 1” value is reported as 100%; the “percentage … passage number 2” value stood at 100%; the “percentage … passage number 3” value is 3%; the “percentage … passage number 4” value is recorded as 19%. In addition, in assay [1] (20 μM), the “percentage … passage number 5” value was 12%; the “percentage … passage number 6” value stood at 0%; the “percentage … passage number 7” value turned out to be 0%. Also, in assay [1] (50 μM), the “percentage … passage number 1” value is on record as 100%; the “percentage … passage number 2” value amounted to 100%; the “percentage … passage number 3” value turned out to be 0%; the “percentage … passage number 4” value was found to be 0%. In assay [1] (50 μM), the “percentage … passage number 5” value turned out to be 0%; the “percentage … passage number 6” value is 0%; the “percentage … passage number 7” value was determined as 0%. Besides, the “antiviral activity (inhibition of HIV replication) in words” value in assay [1] is recorded as “effective at inhibiting the replication of RNA viruses”. Further, the “antiviral activity (inhibition of HIV replication) in words” value in assay [1] (listed as rK) is reported as “active in reducing viral titer”. Further, the IC50 in assay [2] turned out to be 377 ± 62 µM.
